pKi: −log10 of the molar value. Where two headings read alike, the source gives them in different places.

The target in one assay is LIMK1 (Homo sapiens (Human), UniProt P53667). Kind of assay: Lanthascreen Eu binding assay (TR-FRET), inhibition of LIMK1. (In general: In TR-FRET formats the signal depends on donor and acceptor labels being close together.)
The target of the next assay is LIMK2 (Homo sapiens (Human), UniProt P53671). The assay can be described thus: Lanthascreen Eu binding assay (TR-FRET), inhibition of LIMK2.
Sequence of LIMK2 (P53671 whole entry): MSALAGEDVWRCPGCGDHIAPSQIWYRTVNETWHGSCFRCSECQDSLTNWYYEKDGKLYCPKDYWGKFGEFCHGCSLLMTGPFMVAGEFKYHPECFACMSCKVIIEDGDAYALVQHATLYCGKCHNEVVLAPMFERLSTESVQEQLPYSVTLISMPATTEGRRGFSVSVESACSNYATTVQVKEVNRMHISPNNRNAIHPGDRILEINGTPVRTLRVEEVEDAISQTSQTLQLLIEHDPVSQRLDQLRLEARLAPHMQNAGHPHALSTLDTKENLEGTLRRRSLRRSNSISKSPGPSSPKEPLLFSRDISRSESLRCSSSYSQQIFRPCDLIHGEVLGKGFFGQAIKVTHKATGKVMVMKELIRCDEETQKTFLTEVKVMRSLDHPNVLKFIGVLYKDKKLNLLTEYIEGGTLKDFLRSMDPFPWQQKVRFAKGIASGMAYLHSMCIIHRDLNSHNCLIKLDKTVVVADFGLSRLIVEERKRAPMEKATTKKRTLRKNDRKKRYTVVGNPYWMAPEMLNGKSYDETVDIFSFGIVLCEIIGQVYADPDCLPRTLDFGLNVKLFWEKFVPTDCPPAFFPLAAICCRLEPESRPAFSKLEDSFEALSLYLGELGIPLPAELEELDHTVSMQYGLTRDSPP
The target in a further assay is ROCK2 (Homo sapiens (Human), UniProt O75116). The assay can be described thus: Z'Lyte assay, ROCK2 inhibition at a single concentration. The format is biochemical.
Sequence of ROCK2 (O75116 whole entry): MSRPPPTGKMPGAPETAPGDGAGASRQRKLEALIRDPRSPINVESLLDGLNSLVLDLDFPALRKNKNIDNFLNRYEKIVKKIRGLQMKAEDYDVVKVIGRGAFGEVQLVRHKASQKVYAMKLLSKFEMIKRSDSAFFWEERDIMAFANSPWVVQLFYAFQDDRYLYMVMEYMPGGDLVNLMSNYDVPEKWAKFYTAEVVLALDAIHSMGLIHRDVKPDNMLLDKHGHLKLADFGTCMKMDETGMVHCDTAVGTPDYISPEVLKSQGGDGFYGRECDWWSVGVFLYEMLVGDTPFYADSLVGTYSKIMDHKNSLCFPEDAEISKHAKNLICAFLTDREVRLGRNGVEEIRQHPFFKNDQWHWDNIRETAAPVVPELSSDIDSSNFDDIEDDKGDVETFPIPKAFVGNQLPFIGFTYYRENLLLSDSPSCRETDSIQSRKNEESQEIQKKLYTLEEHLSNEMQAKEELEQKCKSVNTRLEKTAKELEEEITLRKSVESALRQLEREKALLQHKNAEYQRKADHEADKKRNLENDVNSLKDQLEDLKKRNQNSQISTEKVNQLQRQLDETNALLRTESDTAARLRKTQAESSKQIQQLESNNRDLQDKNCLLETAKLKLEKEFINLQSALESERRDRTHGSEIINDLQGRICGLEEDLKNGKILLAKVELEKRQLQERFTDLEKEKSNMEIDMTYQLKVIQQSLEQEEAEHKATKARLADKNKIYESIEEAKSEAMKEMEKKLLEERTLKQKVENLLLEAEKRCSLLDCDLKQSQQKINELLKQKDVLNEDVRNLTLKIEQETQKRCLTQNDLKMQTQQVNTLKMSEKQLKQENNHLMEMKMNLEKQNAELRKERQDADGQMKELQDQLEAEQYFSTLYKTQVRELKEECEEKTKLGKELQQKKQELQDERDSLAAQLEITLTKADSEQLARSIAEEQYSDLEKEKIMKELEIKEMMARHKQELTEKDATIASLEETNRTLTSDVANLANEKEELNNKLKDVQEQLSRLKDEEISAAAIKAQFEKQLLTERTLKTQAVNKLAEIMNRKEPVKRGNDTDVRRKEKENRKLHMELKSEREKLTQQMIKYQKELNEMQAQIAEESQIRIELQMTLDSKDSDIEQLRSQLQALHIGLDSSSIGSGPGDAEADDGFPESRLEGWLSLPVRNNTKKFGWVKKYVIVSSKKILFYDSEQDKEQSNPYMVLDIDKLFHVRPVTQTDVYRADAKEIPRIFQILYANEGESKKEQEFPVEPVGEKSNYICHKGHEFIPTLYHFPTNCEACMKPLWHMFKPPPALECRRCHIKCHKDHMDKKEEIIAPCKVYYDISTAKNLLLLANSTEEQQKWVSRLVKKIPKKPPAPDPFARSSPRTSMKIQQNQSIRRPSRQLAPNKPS
The next assay addresses ROCK1 (Homo sapiens (Human), UniProt Q13464). The assay can be described thus: Z'Lyte assay, ROCK1 inhibition at a single concentration. It is filed as biochemical.
Setting [1] is: read-out: % inhibition (ROCK2) 1 uM, 1 uM.
Where [2] appears, read: read-out: % inhibition (ROCK1) 1 uM, 1 uM.
Where [3] appears, read: read-out: % inhibition (ROCK2) 1 uM.
[4] abbreviates: read-out: % inhibition (ROCK1) 1 uM.

Sequence of ROCK1 (Q13464 whole entry): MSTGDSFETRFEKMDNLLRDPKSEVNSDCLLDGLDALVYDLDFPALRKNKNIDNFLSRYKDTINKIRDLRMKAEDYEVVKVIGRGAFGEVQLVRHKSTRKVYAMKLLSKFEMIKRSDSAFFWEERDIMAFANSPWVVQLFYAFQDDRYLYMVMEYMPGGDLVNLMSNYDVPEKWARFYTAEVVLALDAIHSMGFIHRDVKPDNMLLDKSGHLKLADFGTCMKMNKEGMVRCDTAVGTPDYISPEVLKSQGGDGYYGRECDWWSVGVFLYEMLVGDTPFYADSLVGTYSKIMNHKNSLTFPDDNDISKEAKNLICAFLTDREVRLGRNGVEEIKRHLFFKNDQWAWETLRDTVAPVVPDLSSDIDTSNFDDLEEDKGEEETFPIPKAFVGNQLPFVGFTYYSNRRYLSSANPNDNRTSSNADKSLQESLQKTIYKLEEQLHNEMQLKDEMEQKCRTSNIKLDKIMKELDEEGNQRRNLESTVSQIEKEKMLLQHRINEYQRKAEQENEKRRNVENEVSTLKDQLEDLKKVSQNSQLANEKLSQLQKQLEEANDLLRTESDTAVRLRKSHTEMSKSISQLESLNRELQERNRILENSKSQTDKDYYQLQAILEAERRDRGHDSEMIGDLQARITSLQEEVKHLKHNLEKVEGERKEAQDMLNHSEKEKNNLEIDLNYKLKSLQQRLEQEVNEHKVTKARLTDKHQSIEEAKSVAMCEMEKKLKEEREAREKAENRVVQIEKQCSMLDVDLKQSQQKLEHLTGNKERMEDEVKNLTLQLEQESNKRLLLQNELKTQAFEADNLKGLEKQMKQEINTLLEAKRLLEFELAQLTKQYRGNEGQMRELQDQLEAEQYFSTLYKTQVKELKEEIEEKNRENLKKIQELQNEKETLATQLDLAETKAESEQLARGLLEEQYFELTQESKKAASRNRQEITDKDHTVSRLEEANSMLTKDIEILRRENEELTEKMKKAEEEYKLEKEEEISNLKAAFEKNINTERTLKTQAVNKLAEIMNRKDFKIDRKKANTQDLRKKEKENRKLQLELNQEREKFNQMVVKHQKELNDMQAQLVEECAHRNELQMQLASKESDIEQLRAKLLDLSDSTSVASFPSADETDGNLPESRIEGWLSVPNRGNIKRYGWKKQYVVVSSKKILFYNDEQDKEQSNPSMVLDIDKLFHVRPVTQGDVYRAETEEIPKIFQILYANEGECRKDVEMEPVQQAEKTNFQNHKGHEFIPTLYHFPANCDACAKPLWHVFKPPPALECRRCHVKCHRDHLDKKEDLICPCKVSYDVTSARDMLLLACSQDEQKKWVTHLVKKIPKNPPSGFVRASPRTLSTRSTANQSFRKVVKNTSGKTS
Sequence of LIMK1 (P53667 whole entry): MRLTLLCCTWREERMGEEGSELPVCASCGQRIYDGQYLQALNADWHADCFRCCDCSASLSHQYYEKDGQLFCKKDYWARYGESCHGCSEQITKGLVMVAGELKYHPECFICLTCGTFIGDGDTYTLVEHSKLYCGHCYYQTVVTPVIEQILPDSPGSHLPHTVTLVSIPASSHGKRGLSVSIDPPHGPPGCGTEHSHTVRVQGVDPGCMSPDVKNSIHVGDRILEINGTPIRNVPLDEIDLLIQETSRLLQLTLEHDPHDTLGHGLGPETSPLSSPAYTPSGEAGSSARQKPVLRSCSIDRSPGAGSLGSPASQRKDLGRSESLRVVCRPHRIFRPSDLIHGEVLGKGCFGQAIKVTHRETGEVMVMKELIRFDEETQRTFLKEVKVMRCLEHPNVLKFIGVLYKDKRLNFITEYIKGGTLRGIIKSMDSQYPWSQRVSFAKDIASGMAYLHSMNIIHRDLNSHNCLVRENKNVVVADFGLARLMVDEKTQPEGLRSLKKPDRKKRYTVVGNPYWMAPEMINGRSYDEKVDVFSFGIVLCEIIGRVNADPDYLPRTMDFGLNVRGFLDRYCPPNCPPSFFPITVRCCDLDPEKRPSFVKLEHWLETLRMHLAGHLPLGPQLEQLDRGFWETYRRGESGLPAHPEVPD

For the molecule `Cc1c[nH]c2ncnc(C3=CCN(C(=O)Nc4cccc(OCCCN5CCN(C)CC5)c4)CC3)c12` [Compound 185, 4-(5-methyl-7H-pyrrolo[2,3-d]pyrimidin-4-yl)-N-(3-(3-(4-methylpiperazin-1-yl)propoxy)phenyl)-3,6-dihydropyridine-1(2H)-carboxamide], the values for the pKi at LIMK1 (Lanthascreen Eu binding assay) and at LIMK2 (Lanthascreen Eu binding assay) were 6.17 and 6.06, respectively. For the same molecule, the inhibition – broadly, the drop in the measured response relative to a control, in per cent – at 1 µM at ROCK2 (setting [1]) came to 97%; on ROCK1 (setting [2]), 99%.

For the molecule `COc1cccc(-c2cccc(NC(=O)N3CC=C(c4ncnc5[nH]c6c(c45)CCC6)CC3)c2)c1` [Compound 137, N-[3-(3-Methoxyphenyl)phenyl]-4-(7,9,11-triazatricyclo [6.4.0.02,6]dodeca-1(8),2(6),9,11-tetraen-12-yl)-3,6-dihydropyridine-1(2H)-carboxamide], the values for the negative-log Ki (pKi) at LIMK1 (Lanthascreen Eu binding assay) and on LIMK2 (Lanthascreen Eu binding assay) were 8.30 and 8.07, respectively. For the same molecule, the figures for the inhibition at 1 µM at ROCK2 (setting [1]) and on ROCK1 (setting [2]) were 4% and -1%, respectively.

With `CNC(=O)c1cc(Oc2ccc(NC(=O)N3CC=C(c4ncnc5[nH]cc(C)c45)CC3)cc2)ccn1` [Compound 196, N-methyl-4-(4-(4-(5-methyl-7H-pyrrolo[2,3-d]pyrimidin-4-yl)-1,2,3,6-tetrahydropyridine-1-carboxamido)phenoxy)picolinamide], the values for the pKi at LIMK1 (Lanthascreen Eu binding assay) and on LIMK2 (Lanthascreen Eu binding assay) were 6.72 and 7.31, respectively. Also, the inhibition at 1 µM on ROCK2 (setting [1]) came to 12%; on ROCK1 (setting [2]), 21%.

Turning to `O=C(Nc1ccccc1)N1CC=C(c2ncnc3[nH]c4c(c23)CCCC4)CC1` [Compound 120, N-Phenyl-4-(6,7,8,9-tetrahydro-5H-pyrimido[4,5-b]indol-4-yl)-3,6-dihydropyridine-1(2H)-carboxamide], the pKi – broadly, the negative decadic logarithm of the Ki, by convention in mol/L – on LIMK1 (Lanthascreen Eu binding assay) is 7.83; on LIMK2 (Lanthascreen Eu binding assay), 7.53. In addition, the inhibition at 1 µM was -9% on ROCK2 (setting [3]) and 0% at ROCK1 (setting [4]).

With `Cc1c[nH]c2ncnc(C3=CCN(C(=O)Nc4cccc(Oc5cccc(OCc6ccccc6)c5)c4)CC3)c12` [Compound 211, N-(3-(3-(benzyloxy)phenoxy)phenyl)-4-(5-methyl-7H-pyrrolo[2,3-d]pyrimidin-4-yl)-3,6-dihydropyridine-1(2H)-carboxamide], the values for the negative-log Ki (pKi) on LIMK1 (Lanthascreen Eu binding assay) and on LIMK2 (Lanthascreen Eu binding assay) were 6.99 and 6.33, respectively. In addition, the inhibition at 1 µM was determined as 3% on ROCK2 (setting [1]) and 5% at ROCK1 (setting [2]).

Take `Cc1c[nH]c2ncnc(C3=CCN(C(=O)Nc4cccc(-n5cncn5)c4)CC3)c12` [Compound 26, N-(3-(1H-1,2,4-Triazol-1-yl)phenyl)-4-(5-methyl-7H-pyrrolo[2,3-d]pyrimidin-4-yl)-3,6-dihydropyridine-1(2H)-carboxamide]: the pKi on LIMK1 (Lanthascreen Eu binding assay) is 6.56; at LIMK2 (Lanthascreen Eu binding assay), 7.04. Further, the figures for the inhibition at 1 µM at ROCK2 (setting [1]) and at ROCK1 (setting [2]) were 64% and 85%, respectively.

Turning to `CN1CCc2[nH]c3ncnc(C4=CCN(C(=O)Nc5cccc(Cl)c5)CC4)c3c2C1` [Compound 161, N-(3-Chlorophenyl)-4-(6-methyl-6,7,8,9-tetrahydro-5H-pyrido[3′,4′:4,5]pyrrolo[2,3-d]pyrimidin-4-yl)-3,6-dihydropyridine-1(2H)-carboxamide], the negative-log Ki (pKi) on LIMK1 (Lanthascreen Eu binding assay) is 5.93; at LIMK2 (Lanthascreen Eu binding assay) it was 5.61. The results for the inhibition at 1 µM on ROCK2 (setting [3]) and at ROCK1 (setting [4]) were -9% and 1%, respectively.

With `Cc1c[nH]c2ncnc(C3=CCN(C(=O)Nc4cccc(Oc5cccc(Cl)c5)c4)CC3)c12` [Compound 204, N-(3-(3-chlorophenoxy)phenyl)-4-(5-methyl-7H-pyrrolo[2,3-d]pyrimidin-4-yl)-3,6-dihydropyridine-1(2H)-carboxamide], the negative-log Ki (pKi) at LIMK1 (Lanthascreen Eu binding assay) is 7.30; at LIMK2 (Lanthascreen Eu binding assay), 7.81. Also, the inhibition at 1 µM on ROCK2 (setting [1]) came to 46%; on ROCK1 (setting [2]) it was 71%.

Take `Cc1c[nH]c2ncnc(C3=CCN(C(=O)Nc4cccc(Oc5cccc(O)c5)c4)CC3)c12` [Compound 213, N-(3-(3-hydroxyphenoxy)phenyl)-4-(5-methyl-7H-pyrrolo[2,3-d]pyrimidin-4-yl)-3,6-dihydropyridine-1(2H)-carboxamide]: the values for the pKi at LIMK1 (Lanthascreen Eu binding assay) and on LIMK2 (Lanthascreen Eu binding assay) were 7.89 and 7.79, respectively. Besides, the values for the inhibition at 1 µM on ROCK2 (setting [1]) and on ROCK1 (setting [2]) were 27% and 55%, respectively.

On to `CC1=CC(C)=[N+]2C1=Cc1ccc(CCC(=O)NCCCOc3cccc(-c4cccc(NC(=O)N5CC=C(c6ncnc7[nH]c8c(c67)CCC8)CC5)c4)c3)n1[B-]2(F)F` [Compound 167, N-(3′-(3-(3-(5,5-Difluoro-7,9-dimethyl-5H-dipyrrolo[1,2-c:2′,1′-f][1,3,2]diazaborinin-3-yl)propanamido)propoxy)-[1,1′-biphenyl]-3-yl)-4-(5,6,7,8-tetrahydrocyclopenta[4,5]pyrrolo[2,3-d]pyrimidin-4-yl)-3,6-dihydropyridine-1(2H)-carboxamide], for which the pKi on LIMK1 and on LIMK2 was 6.95 in each case. Besides, the “% inhibition (ROCK2) 1 uM” value on ROCK2 is on record as 6%. In addition, the “% inhibition (ROCK1) 1 uM” value on ROCK1 was −4%.

`Cc1c[nH]c2ncnc(C3=CCN(C(=O)Nc4cccc(Oc5ccc(Br)cc5Cl)c4)CC3)c12` [Compound 206, N-(3-(4-bromo-2-chlorophenoxy)phenyl)-4-(5-methyl-7H-pyrrolo[2,3-d]pyrimidin-4-yl)-3,6-dihydropyridine-1(2H)-carboxamide]: the pKi at LIMK1 (Lanthascreen Eu binding assay) is 6.38; at LIMK2 (Lanthascreen Eu binding assay), 6.17. Also, the inhibition at 1 µM at ROCK2 (setting [1]) amounted to 3%; at ROCK1 (setting [2]) it was 13%.

Regarding `CN1CCc2[nH]c3ncnc(C4=CCN(C(=O)Nc5cccc(Br)c5)CC4)c3c2C1` [Compound 162, N-(3-Bromophenyl)-4-(6-methyl-6,7,8,9-tetrahydro-5H-pyrido [3′,4′:4,5]pyrrolo[2,3-d]pyrimidin-4-yl)-3,6-dihydropyridine-1(2H)-carboxamide], the pKi on LIMK1 is 6.14; at LIMK2, 5.99. In addition, the inhibition at 1 µM was -8% at ROCK2 (setting [3]) and 4% on ROCK1 (setting [4]).

As to `Cc1c[nH]c2ncnc(C3=CCN(C(=O)Nc4ccc(Oc5ccccc5)cc4)CC3)c12` [Compound 28, 4-(5-Methyl-7H-pyrrolo[2,3-d]pyrimidin-4-yl)-N-(4-phenoxy-phenyl)-3,6-dihydropyridine-1(2H)-carboxamide], the pKi on LIMK1 (Lanthascreen Eu binding assay) was 7.46; on LIMK2 (Lanthascreen Eu binding assay) it was 7.36. Moreover, the “% inhibition (ROCK2) 1 uM” value at ROCK2 (1 uM) worked out at 35%. Moreover, the “% inhibition (ROCK1) 1 uM” value on ROCK1 (1 uM) stood at 76%.

In the case of `CCc1cccc(NC(=O)N2CC=C(c3ncnc4[nH]cc(C)c34)CC2)c1` [Compound 20, N-(3-Ethylphenyl)-4-(5-methyl-7H-pyrrolo[2,3-d]pyrimidin-4-yl)-3,6-dihydropyridine-1(2H)-carboxamide], the results for the negative logarithm of the Ki (pKi) at LIMK1 (Lanthascreen Eu binding assay) and at LIMK2 (Lanthascreen Eu binding assay) were 6.79 and 6.71, respectively. For the same molecule, the inhibition at 1 µM at ROCK2 (setting [1]) is 28%; on ROCK1 (setting [2]), 55%.

Regarding `CNC(=O)c1cc(Oc2cccc(NC(=O)N3CC=C(c4ncnc5[nH]cc(C)c45)CC3)c2)ccn1` [Compound 198, N-methyl-4-(3-(4-(5-methyl-7H-pyrrolo[2,3-d]pyrimidin-4-yl)-1,2,3,6-tetrahydropyridine-1-carboxamido)phenoxy)picolinamide], the negative-log Ki (pKi) at LIMK1 (Lanthascreen Eu binding assay) was 8.51; at LIMK2 (Lanthascreen Eu binding assay), 8.54. In addition, the results for the inhibition at 1 µM on ROCK2 (setting [1]) and on ROCK1 (setting [2]) were 65% and 79%, respectively.

For the origin of these results see patent US20230312576A1, “4-(7H-PYRROLO[2,3-D]PYRIMIDIN-4-YL)-3,6-DIHYDROPYRIDINE-1-(2H)-CARBOXAMIDE DERIVATIVES AS LIMK AND/OR ROCK KINASES INHIBITORS FOR USE IN THE TREATMENT OF CANCER” (CENTRE NATIONAL DE LA RECHERCHE SCIENTIFIQUE, priority 2020, published 2023).
